According to PMC9246773, “Assessing the Activity of Antimicrobial Peptides Against Common Marine Bacteria Located in Rotifer (Brachionus plicatilis) Cultures” (Probiotics and Antimicrobial Proteins, 2022):
No end group written: not given here.

Experiments:
[1] = system: Escherichia coli (ATCC 25922); assay type: cell-based; settings: ATCC 25922, 48 h
Protocol: (§1) A range of bacterial species with the potential to be transferred to developing fish larvae as pathogens or probiotics were selected for use in the study (Table 2). Bacterial isolates were stored at −80 °C and thawed, and 25 µL of the isolates was spread onto marine salt agar (MSA) media. All isolates were incubated at 25 °C for 18 h to reach mid-log growth phase. All isolates were sub-cultured and identified using mass spectrometry (MALDI-TOF) using the BioTyper and MBT 8468 library (Bruker Pty Ltd). The isolate Tenacibaculum discolor was plated on Anacker and Oradal’s marine (AOM) media, incubated for 48 h and identified using the aforementioned method. Bacterial isolates were suspended in sterile saline (0.75% NaCl w/v) to 0.5 McFarland standard. […] The bacterial isolates T. discolor and Pseudoalteromonas sp. require marine salts to grow and were not added to MHB (0‰). The isolate T. discolor requires low nutrients to grow, therefore, a separate MHB (25‰) was prepared at a diluted ratio of 1 part MHB and 7 parts artificial seawater (25‰).
(§2) The protocol was followed to determine the minimum inhibitory concentration (MIC) of the selected peptides. Two MIC assays were performed, firstly to determine whether each peptide precipitated in MHB and thereby required acetic acid adjustments (supplementary materials) and secondly, to determine the antimicrobial activity of each peptide in artificial seawater (25‰). Peptide stock solutions (1.3 mg mL^−1) were made by diluting the peptides in sterile deionised water. MHB was made with deionised water to reach a concentration of approaching 0‰ and artificial sea salts (Sigma-Aldrich® S9883) to reach a salinity of 25‰.
(§3) A broth microdilution protocol was followed to test whether the AMPs precipitated in MHB. The isolates T. discolor and Pseudoalteromonas were excluded from this assay because they required marine salts for growth. The peptides HHC10 and HHC36 previously required acetic acid adjustments according to [63] and were not trialled in this assay. To test if peptides required acetic acid, each peptide was diluted 1:2 in acetic acid (0.02% acetic acid w/v, containing 0.4% BSA) solution. In a 96-well polypropylene microtitre plates (Costar® 3879), 100 µL of this peptide stock was added to the first well for each bacterial isolate tested and serially diluted 2-fold with acetic acid (0.01% acetic acid w/v, containing 0.2% BSA). From each well, 10 µL of each peptide concentration was added to the corresponding wells of a new 96-well microtitre plate. From each of the bacterial suspensions in MHB (0‰), 90 µL was added to each well. […] From each of the bacterial suspensions in MHB (0‰), 50 µL was added to each well. All peptide concentrations ranged from 0.125 - 65µg mL^-1 and the bacterial suspension in each well was approximately 5 × 10^5 CFU mL^-1. Antimicrobial peptides that have an MIC value two or more dilutions higher in the assay with no acetic acid, compared to the assay with acetic acid, require acetic acid adjustments. The 96-well plates were incubated at 25 °C and read at 24 and 48 hours. The MIC was visually determined using a Sensititre™ Vizion™ Digital MIC Viewing System (Thermo Scientific™), and the lowest AMP concentration that had no bacterial growth was recorded as the MIC after 48 hours. Each bacterium was trialled in duplicate.

Shewanella sp. [2] = assay type: cell-based; settings: 48 h
Protocol: as §1, §2, §3

Vibrio alginolyticus [3] = assay type: cell-based; settings: 48 h
Protocol: as §1, §2, §3

[4] = system: Vibrio harveyi (ATCC 35084); assay type: cell-based; settings: ATCC 35084, 48 h
Protocol: as §1, §2, §3

Vibrio harveyi [5] = assay type: cell-based; settings: 48 h
Protocol: as §1, §2, §3

Vibrio rotiferianus [6] = assay type: cell-based; settings: 48 h
Protocol: as §1, §2, §3

Vibrio scophthalmi [7] = assay type: cell-based; settings: 48 h
Protocol: as §1, §2, §3

bacterial isolates = assay type: cell-based; settings: 18 h
Protocol: as §1, §2
Once the acetic acid requirement for each peptide was determined (Table 3), the antimicrobial activity of each peptide was tested at a salinity of 0‰ and 25‰ for all bacterial isolates. A stock solution for peptides that required acetic acid was prepared by a 1:2 dilution in acetic acid (0.02% acetic acid w/v, containing 0.4% BSA) solution. In a 96-well polypropylene microtitre plates (Costar® 3879), 100 µL of this peptide stock was added to the first well for each bacterial isolate tested and serially diluted twofold with acetic acid (0.01% acetic acid w/v, containing 0.2% BSA). From each well, 10 µL of each peptide concentration was added to the corresponding wells of a new 96-well microtitre plate. From each of the bacterial suspensions (0‰), 90 µL was added to each well. […] Twofold serial dilutions were made with MHB (0‰). From each of the bacterial suspensions (0‰), 50 µL was added to each well. The same method was followed for testing peptides in MHB at 25‰. All peptide concentrations ranged from 0.125 to 65 µg mL^−1, and the bacterial suspension in each well was approximately 5 × 10^5 CFU mL^−1. […]

[8] = system: Escherichia coli (ATCC 25922); assay type: cell-based; settings: ATCC 25922, 48 h; remark: listed apart in the source
Protocol: as §1, §2
(§4) Once the acetic acid requirement for each peptide was determined (Table 3), the antimicrobial activity of each peptide was tested at a salinity of 0‰ and 25‰ for all bacterial isolates. A stock solution for peptides that required acetic acid was prepared by a 1:2 dilution in acetic acid (0.02% acetic acid w/v, containing 0.4% BSA) solution. In a 96-well polypropylene microtitre plates (Costar® 3879), 100 µL of this peptide stock was added to the first well for each bacterial isolate tested and serially diluted twofold with acetic acid (0.01% acetic acid w/v, containing 0.2% BSA). From each well, 10 µL of each peptide concentration was added to the corresponding wells of a new 96-well microtitre plate. From each of the bacterial suspensions (0‰), 90 µL was added to each well. […] Twofold serial dilutions were made with MHB (0‰). From each of the bacterial suspensions (0‰), 50 µL was added to each well. The same method was followed for testing peptides in MHB at 25‰. All peptide concentrations ranged from 0.125 to 65 µg mL^−1, and the bacterial suspension in each well was approximately 5 × 10^5 CFU mL^−1. The different salinities were used to compare any differences in antimicrobial activity in 0‰ and 25‰ water. […] Each bacterium was trialled in duplicate.

Pseudoalteromonas sp. = assay type: cell-based; settings: 48 h
Protocol: as §1, §2, §4

Shewanella sp. [9] = assay type: cell-based; settings: 48 h; remark: listed apart in the source
Protocol: as §1, §2, §4

Tenacibaculum discolor = assay type: cell-based; settings: 48 h
Protocol: as §1, §2, §4

Vibrio alginolyticus [10] = assay type: cell-based; settings: 48 h; remark: listed apart in the source
Protocol: as §1, §2, §4

[11] = system: Vibrio harveyi (ATCC 35084); assay type: cell-based; settings: ATCC 35084, 48 h; remark: listed apart in the source
Protocol: as §1, §2, §4

Vibrio harveyi [12] = assay type: cell-based; settings: 48 h; remark: listed apart in the source
Protocol: as §1, §2, §4

Vibrio rotiferianus [13] = assay type: cell-based; settings: 48 h; remark: listed apart in the source
Protocol: as §1, §2, §4

Vibrio scophthalmi [14] = assay type: cell-based; settings: 48 h; remark: listed apart in the source
Protocol: as §1, §2, §4

[15] = cited from earlier work
Source text: A study by Haney determined the aggregation properties of the innate defence regulator (IDR) peptides 1018, 1002 and HH2 in different media such as salts and serum. These IDR peptides are synthetic analogues to natural host defence peptides (HDPs) found in organisms. […] Second-generation peptides are synthetically rearranged IDRs that are created to combat unwa ...

| Substance | MIC E. coli ATCC 25922, Acetic [1] [µg/mL] | MIC E. coli ATCC 25922, No acetic [1] [µg/mL] | MIC Shewanella sp., Acetic (Shewanella sp. [2]) [µg/mL] | MIC Shewanella sp., No acetic (Shewanella sp. [2]) [µg/mL] | MIC V. alginolyticus, Acetic (Vibrio alginolyticus [3]) [µg/mL] | MIC V. alginolyticus, No acetic (Vibrio alginolyticus [3]) [µg/mL] | MIC V. harveyi ATCC 35084, Acetic [4] [µg/mL] | MIC V. harveyi ATCC 35084, No acetic [4] [µg/mL] | MIC V. harveyi, Acetic (Vibrio harveyi [5]) [µg/mL] | MIC V. harveyi, No acetic (Vibrio harveyi [5]) [µg/mL] | MIC V. rotiferianus, Acetic (Vibrio rotiferianus [6]) [µg/mL] | MIC V. rotiferianus, No acetic (Vibrio rotiferianus [6]) [µg/mL] | MIC V. scophthalmi, Acetic (Vibrio scophthalmi [7]) [µg/mL] | MIC V. scophthalmi, No acetic (Vibrio scophthalmi [7]) [µg/mL] | MIC against the probiotic strains, low salt (bacterial isolates) [µg/mL] | MIC E. coli ATCC 25922, salinity 0‰ [8] [µg/mL] | MIC E. coli ATCC 25922, salinity 25‰ [8] [µg/mL] | MIC Pseudoalteromonas sp., salinity 25‰ (Pseudoalteromonas sp.) [µg/mL] | MIC Shewanella sp., salinity 0‰ (Shewanella sp. [9]) [µg/mL] | MIC Shewanella sp., salinity 25‰ (Shewanella sp. [9]) [µg/mL] | other results |
| --- | --- | --- | --- | --- | --- | --- | --- | --- | --- | --- | --- | --- | --- | --- | --- | --- | --- | --- | --- | --- | --- |
| RRWIVKVRIRRR-NH2 [Peptide 2008] | 2.03 | 4.06 | 0.13 | 0.51 | 0.51 | 1.02 | 1.02 | 1.02 | 1.02 | 1.02 | 0.25 | 1.02 | 0.13 | 0.25 | 0.13 to 0.25 | 4.06 | > 65 | 65 | 0.51 | 65 | MIC T. discolor, salinity 25‰ (Tenacibaculum discolor): > 65 µg/mL; MIC V. alginolyticus, salinity 0‰ (Vibrio alginolyticus [10]): 0.13 µg/mL; MIC V. alginolyticus, salinity 25‰ (Vibrio alginolyticus [10]): 65 µg/mL; MIC V. harveyi ATCC 35084, salinity 0‰ [11]: 1.02 µg/mL; MIC V. harveyi ATCC 35084, salinity 25‰ [11]: > 65 µg/mL; MIC V. harveyi, salinity 0‰ (Vibrio harveyi [12]): 1.02 µg/mL; MIC V. harveyi, salinity 25‰ (Vibrio harveyi [12]): > 65 µg/mL; MIC V. rotiferianus, salinity 0‰ (Vibrio rotiferianus [13]): 0.25 µg/mL; MIC V. rotiferianus, salinity 25‰ (Vibrio rotiferianus [13]): 65 µg/mL; MIC V. scophthalmi, salinity 0‰ (Vibrio scophthalmi [14]): 0.25 µg/mL; MIC V. scophthalmi, salinity 25‰ (Vibrio scophthalmi [14]): 65 µg/mL; cytotoxicity [15]: caused cytotoxicity |
| KWRLLIRWRIQK [Peptide 2009] | 2.03 | 2.03 | 0.25 | 1.02 | 1.02 | 1.02 | 1.02 | 1.02 | 1.02 | 1.02 | 0.13 | 1.02 | 0.13 | 0.51 | 0.13 to 0.25 | 2.03 | > 65 | > 65 | 0.51 | > 65 | MIC T. discolor, salinity 25‰ (Tenacibaculum discolor): > 65 µg/mL; MIC V. alginolyticus, salinity 0‰ (Vibrio alginolyticus [10]): 1.02 µg/mL; MIC V. alginolyticus, salinity 25‰ (Vibrio alginolyticus [10]): 65 µg/mL; MIC V. harveyi ATCC 35084, salinity 0‰ [11]: 1.02 µg/mL; MIC V. harveyi ATCC 35084, salinity 25‰ [11]: > 65 µg/mL; MIC V. harveyi, salinity 0‰ (Vibrio harveyi [12]): 1.02 µg/mL; MIC V. harveyi, salinity 25‰ (Vibrio harveyi [12]): > 65 µg/mL; MIC V. rotiferianus, salinity 0‰ (Vibrio rotiferianus [13]): 0.13 µg/mL; MIC V. rotiferianus, salinity 25‰ (Vibrio rotiferianus [13]): 32.5 µg/mL; MIC V. scophthalmi, salinity 0‰ (Vibrio scophthalmi [14]): < 0.13 µg/mL; MIC V. scophthalmi, salinity 25‰ (Vibrio scophthalmi [14]): 32.5 µg/mL; cytotoxicity [15]: caused cytotoxicity |
